This is an account of results in patent US8946426B2, “Substituted bicyclic heterocyclic compounds as gamma secretase modulators” (Janssen Pharmaceuticals, Inc., priority 2009, dated 2015).

In one test the test system is mouse Notch2. The experiment in a line: Notch cell-based assay (N2-CHO/DL-CHO co-culture, Dual-Glo luciferase, NICD production). As to conditions: Mus musculus; N2-CHO/DL-CHO co-culture 16 H; five-point curve 3 μM-0.3 nM; read-out: average IC50 values from the Notch cell-based assay (luciferase assay readouts). The text has this: The Notch cell-based assay was based on the interaction of Notch and its ligand in a co-culture system and utilized the Dual-Glo Luciferase Assay System (Promega) to monitor NICD production. Two stable cell lines, N2-CHO and DL-CHO, were established to express full-length mouse Notch2 and Delta respectively. Cells that expressed mouse Notch were also transfected with two plasmids, pTP1-Luc and pCMV-RLuc, to express firefly and Renilla luciferase. Expression of firefly luciferase was under the control of TP1 promoter that responded to NICD activation.
N2-CHO cells were seeded at 1×10^5/well in 24-well plates the day before transfection. On the second day, cells were double transfected with 3 μg/well pTP1-Luc (expressing firefly luciferase) and 0.3 ng/well pCMV-RLuc (expressing Renilla luciferase). After 6 H incubation, transfected N2-CHO cells were washed and DL-CHO cells (2×10^5 cells/well) were added.
Compounds were pre-mixed with DL-CHO cell suspension in a five-point curve. Typically, compound treatment was performed in duplicate with a serial 1:10 dilution (3 μM-0.3 nM) in DMSO. The final concentration of DMSO in a given culture was 1%. Controls included non-transfected cells and transfected cells treated with a GSI or DMSO only. Luciferase assays were performed after 16 H co-culture and compound treatment.
The luciferase assay was carried out according to manufacture's instructions. Briefly, cells were washed with PBS (Phosphate Buffered Saline), lysed with Passive Lysis Buffer (Promega), and incubated at room temperature for 20 min. Lysates were mixed with Dual-Glo Luciferase Reagent and the firefly luciferase activity was measured by reading the luminescence signal in the EnVision 2101 Multilabel reader. Dual-Glo Stop & Glo Reagent was then added to each well and the Renilla luciferase signal was measured.

In test [1] the test system is Notch-processing activity of the γ-secretase-complex. In words: Notch cell-free assay (NICD production from recombinant Notch substrate N99). Conditions: 1 μM test compound; 0.3-0.5 μM mouse Notch substrate; enriched gamma secretase; 37° C., 6 to 22 h; western blot; control GSI concentration not given. It counts as biochemical. As to the method: The Notch transmembrane domain is cleaved by gamma secretase to release Notch Intracellular C-terminal Domain (NICD).
To monitor the effect of compounds on NICD production, a recombinant Notch substrate (N99) was prepared. The Notch substrate, comprised of mouse Notch fragment (V1711-E1809), an N-terminal methionine and a C-terminal FLAG sequence ([…]), was expressed in E. coli and purified on a column containing an anti-FLAG M2 affinity matrix.
A typical Notch cell-free assay consisted of 0.3-0.5 μM Notch substrate, an enriched preparation of gamma secretase and 1 μM of a test compound (compounds 16, 18 and 106 of the present invention). Controls included a gamma secretase inhibitor (GSI), such as (2S)—N-[2-(3,5-difluorophenyl)acetyl]-L-alanyl-2-phenyl-glycine 1,1-dimethylethyl ester (DAPT) or (2S)-2-hydroxy-3-methyl-N-[(1S)-1-methyl-2-oxo-2-[[(1S)-2,3,4,5-tetrahydro-3-methyl-2-oxo-1H-3-benzazepin-1-yl]amino]ethyl]-butanamide (Semagacestat), and DMSO, the final concentration of DMSO being 1%. Recombinant Notch substrate was pre-treated with 17 μM DTT (1,4-dithiothreitol) and 0.02% SDS (Sodium Dodecyl Sulfate) and heated at 65° C. for 10 min. The mixture of substrate, gamma secretase and compound/DMSO was incubated at 37° C. for 6 to 22 hours (h). Six-hour incubation was sufficient to produce the maximal amount of NICD and the cleaved product remained stable for an additional 16 H. Reaction products were processed for SDS PAGE (Sodium Dodecyl Sulfate-Poly Acrylamide Gel Electrophoresis) and western blotting. Blots were probed with an anti-Flag M2 antibody, followed by LI-COR infrared secondary antibody, and analyzed with the Odyssey Infrared Imaging System (LI-COR® Biosciences).
Background: A western blot detects proteins with antibodies after separation by electrophoresis.

On to `C[C@H](NC(=O)Cc1cc(F)cc(F)c1)C(=O)NC(C(=O)OC(C)(C)C)c1ccccc1` (stereo partly drawn) [DAPT, (2S)—N-[2-(3,5-difluorophenyl)acetyl]-L-alanyl-2-phenyl-glycine 1,1-dimethylethyl ester, reference compound], for which the IC50 (usually the point on the concentration scale where inhibition reaches its midpoint) with mouse Notch2 was 45 nM. Also, the “effect on the Notch-processing activity of the γ-secretase-complex (production of NICD)” value in test [1] was “blocked”.

For `CC(C)[C@H](O)C(=O)N[C@@H](C)C(=O)N[C@@H]1C(=O)N(C)CCc2ccccc21` [Semagacestat, (2S)-2-hydroxy-3-methyl-N-[(1S)-1-methyl-2-oxo-2-[[(1S)-2,3,4,5-tetrahydro-3-methyl-2-oxo-1H-3-benzazepin-1-yl]amino]ethyl]-butanamide, reference compound], the IC50 with mouse Notch2 was 40 nM. Besides, in test [1], the “effect on the Notch-processing activity of the γ-secretase-complex (production of NICD)” value is “blocked”.
